{"source": "ChEMBL document CHEMBL5046301", "about": "“pH-Responsive Antimicrobial Peptide with Selective Killing Activity for Bacterial Abscess Therapy” (J Med Chem, 2022)", "key": {"Escherichia coli": {"tested_on": "Escherichia coli", "assay": "Antibacterial activity against Escherichia coli ATCC 25922 assessed as inhibition of bacterial growth at pH 6.5 incubated for 24 hrs by NCCLS protocol based method", "assay_type": "functional"}, "Pseudomonas aeruginosa [1]": {"tested_on": "Pseudomonas aeruginosa", "assay": "Antipseudomonal activity against Pseudomonas aeruginosa ATCC 27853 infected in ICR cutaneous abscess mouse model assessed as reduction in lesion area at 5 mg/kg,ip administered twice a day measured after 72 hrs (reference value: […])", "assay_type": "functional"}, "Salmonella typhimurium [2]": {"tested_on": "Salmonella typhimurium", "assay": "Antibacterial activity against Salmonella enterica subsp. enterica serovar Typhimurium C77-31 assessed as inhibition of bacterial growth at pH 7.4 incubated for 24 hrs by NCCLS protocol based method", "assay_type": "functional"}, "Salmonella typhimurium [3]": {"tested_on": "Salmonella typhimurium", "assay": "Antibacterial activity against Salmonella typhimurium ATCC 14028 assessed as inhibition of bacterial growth at pH 6.5 incubated for 24 hrs by NCCLS protocol based method", "assay_type": "functional, Salmonella enterica subsp. enterica serovar Typhimurium", "settings": "Salmonella enterica"}, "Salmonella typhimurium [4]": {"tested_on": "Salmonella typhimurium", "assay": "Antibacterial activity against Salmonella enterica subsp. enterica serovar Typhimurium C77-31 assessed as inhibition of bacterial growth at pH 6.5 incubated for 24 hrs by NCCLS protocol based method", "assay_type": "functional"}, "Mus musculus": {"tested_on": "Mus musculus", "assay": "Antiinflammatory activity in ICR cutaneous abscess mouse model assessed as reduction in TNF-alpha expression in serum at 5 mg/kg,ip administered twice a day measured after 72 hrs by ELISA (reference value: 1.01 +/ 0.46 10^3 pg/ml)", "assay_type": "functional"}, "Cell membrane": {"tested_on": "Cell membrane", "assay": "Induction of outer membrane permeabilization in Pseudomonas aeruginosa ATCC 27853 assessed as pH responsive ability by measuring fold increase in NPN uptake at 64 uM by NPN-dye based fluorescence analysis relative to control", "assay_type": "subcellular"}, "Pseudomonas aeruginosa [5]": {"tested_on": "Pseudomonas aeruginosa", "assay": "Induction of morphological changes in Pseudomonas aeruginosa ATCC 27853 assessed as disruption in cell membrane at 2 uM at pH 6.5 incubated for 1 hr by SEM analysis", "assay_type": "functional, organism-based"}, "Pseudomonas aeruginosa [6]": {"tested_on": "Pseudomonas aeruginosa", "assay": "Antimicrobial activity against Pseudomonas aeruginosa ATCC 27853 assessed as reduction in bacterial growth at pH 6.5 in presence of MgCl2", "assay_type": "functional"}, "Lipopolysaccharide (LPS)": {"tested_on": "Lipopolysaccharide (LPS)", "assay": "Displacement of BODIPY-TR-cadaverin from Pseudomonas aeruginosa ATCC 27316 Lipopolysaccharide at 1 to 64 uM at pH 7.4 incubated for 1 hr by fluorescence based analysis relative to control", "settings": "dose 1-64 µM"}, "Pseudomonas aeruginosa [7]": {"tested_on": "Pseudomonas aeruginosa", "assay": "Antimicrobial activity against Pseudomonas aeruginosa ATCC 27853 infected in ICR cutaneous abscess mouse model assessed as reduction in colony forming units at 5 mg/kg,ip administered twice a day measured after 72 hrs (reference value: 5.08 +/ 1.84 10^10 CFU/mL )", "assay_type": "functional"}, "Pseudomonas aeruginosa [8]": {"tested_on": "Pseudomonas aeruginosa", "assay": "Antimicrobial activity against Pseudomonas aeruginosa ATCC 27853 assessed as reduction in bacterial growth at pH 6.5 in presence of KCl", "assay_type": "functional, organism-based"}, "Pseudomonas aeruginosa [9]": {"tested_on": "Pseudomonas aeruginosa", "assay": "Antimicrobial activity against Pseudomonas aeruginosa ATCC 27853 infected in ICR cutaneous abscess mouse model assessed as reduction in necrotic tissue area in infection site at 5 mg/kg,ip administered twice a day measured after 3 days by hematoxylin and eosin staining based analysis", "assay_type": "functional, organism-based", "settings": "time 3.0 day"}}, "note": "Activity calls are given as the source filed them. The calls are words filed in the database; no cut-off is given here.", "data": [{"substance": "H-FLEHLIPHVIHGLVHAIHH-NH2", "values": [{"measurement": "MIC", "setting": "Escherichia coli", "value": 2, "unit": "µM"}, {"measurement": "Activity", "setting": "Pseudomonas aeruginosa [1]", "value": "2.97 10^1/mm2"}, {"measurement": "MIC", "setting": "Salmonella typhimurium [2]", "value": "> 64", "unit": "µM"}, {"measurement": "MIC", "setting": "Salmonella typhimurium [3]", "value": 16, "unit": "µM"}, {"measurement": "MIC", "setting": "Salmonella typhimurium [4]", "value": 8, "unit": "µM"}, {"measurement": "Activity", "setting": "Mus musculus", "value": "8.14 10^2pg/ml"}, {"measurement": "Activity", "setting": "Cell membrane", "value": 65.9, "unit": "%"}, {"measurement": "Activity", "setting": "Pseudomonas aeruginosa [5]", "value": "Active"}, {"measurement": "MIC", "setting": "Pseudomonas aeruginosa [6]", "value": 2, "unit": "µM"}, {"measurement": "Activity", "setting": "Lipopolysaccharide (LPS)", "value": 22.9, "unit": "%"}, {"measurement": "Activity", "setting": "Pseudomonas aeruginosa [7]", "value": "2.16 10^9CFU/ml"}, {"measurement": "Activity", "setting": "Pseudomonas aeruginosa [8]", "value": "inactive"}, {"measurement": "Activity", "setting": "Pseudomonas aeruginosa [9]", "value": "Active"}]}]}
